Our source for the EC50 and inhibition values is US9617283B2, “Bicyclic heterocycle compounds and their uses in therapy” (ASTEX THERAPEUTICS LIMITED, priority 2012, dated 2017).

The structures appear in SMILES notation. Structures can show the parent of a compound that is named as a salt. Where two headings read alike, the source gives them in different places.

Test [1] has as its system EVSA-T (human breast carcinoma). As to the kind of experiment: Anti-proliferative activity, Alamar Blue assay, EVSA-T. The format is cell-based. For orientation: Resazurin is reduced to fluorescent resorufin, in cell work by metabolically active cells.
Procedure: Anti-Proliferative Activity
The method is based on the ability of viable cells to reduce resazurin to its fluorescent product resorufin. For each proliferation assay cells are plated onto 96 well plates and allowed to recover for 16 hours prior to the addition of inhibitor compounds (in 0.1% DMSO v/v) for a further 72 hours. […] The anti-proliferative activities of compounds of the invention can be determined by measuring the ability of the compounds to inhibit growth in 3 cancer cell lines: • EVSA-T (human breast carcinoma) DSMZ cat. no.
Test [2] has as its target T1, BIR3 domain of human XIAP (residues 252-350) (Homo sapiens, UniProt P98170).
T1 construct: BIR3 domain of human XIAP (residues 252-350); His-tag (cleaved yes); made in house; host or cells: Escherichia coli
In words: XIAP in vitro competitive displacement binding assay (fluorescence polarization). Conditions: 1 h, percent inhibition (PI) at 0.04 μM; read-out: Xiap IC50 or PI μM. For orientation: In fluorescence polarisation assays a small probe gives low polarisation when free and higher when bound to something large.

Setting [3] is: Homo sapiens, EVSA-T, 72 h, EVSA-T cell line, 72 hours, Alamar Blue; read-out: EVSA-T prolif.
The mark [4] stands for this setting: Homo sapiens, EVSA-T; read-out: EC50 in EVSA-T cell line assays.
Setting [5] is: EVSA-T cell line, 72 hours, Alamar Blue; dihydrochloride; read-out: EVSA-T prolif.
Where [6] appears, read: Homo sapiens; EVSA-T cell line, 72 hours, Alamar Blue; read-out: EVSA-T prolif.

T1 sequence (P98170 252-350): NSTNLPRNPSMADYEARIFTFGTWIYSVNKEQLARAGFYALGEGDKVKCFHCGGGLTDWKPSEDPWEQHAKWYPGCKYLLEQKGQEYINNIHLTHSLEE

Turning to `C[C@@H]1CN(CC(=O)N2CC(C)(C)c3cnc(Cc4ccc(F)cc4)cc32)[C@@H](CN2C[C@H](C)OCC2=O)CN1` (single isomer, unassigned) [Example 18, (6R or 6S)-4-{[(2R,5R)-1-(2-{6-[(4-Fluorophenyl)methyl]-3,3-dimethyl-1H,2H,3H-pyrrolo[3,2-c]pyridin-1-yl}-2-oxoethyl)-5-methylpiperazin-2-yl]methyl}-6-methylmorpholin-3-one L-lactate], the EC50 in test [1] (setting [3]) was 3.5 nM; in test [1] (setting [4]) it was less than 1000 nM. The inhibition at 0.04 µM in test [2] was found to be 70%.
As to `C[C@@H]1CN(CC(=O)N2CC(C)(C)c3ncc(Cc4ccc(F)cc4F)cc32)[C@@H](CN2C[C@H](C)OCC2=O)CN1` (single isomer, unassigned) [Example 23, (6R or 6S)-4-{[(2R,5R)-1-(2-{6-[(2,4-Difluorophenyl)methyl]-3,3-dimethyl-1H,2H,3H-pyrrolo[3,2-b]pyridin-1-yl}-2-oxoethyl)-5-methylpiperazin-2-yl]methyl}-6-methylmorpholin-3-one, dihydrochloride], the EC50 in test [1] (setting [3]) is 2.8 nM; in test [1] (setting [4]), less than 1000 nM. For the same compound, the inhibition at 0.04 µM in test [2] came to 64%.
`CCC1CN(C[C@H]2CN[C@H](C)CN2CC(=O)N2CC(C)(C)c3cnc(Cc4ccc(F)cc4F)cc32)C(=O)CO1` (single isomer, unassigned) [Example 80, 4-{[(2R,5R)-1-(2-{6-[(2,4-Difluorophenyl)methyl]-3,3-dimethyl-1H,2H,3H-pyrrolo[3,2-c]pyridin-1-yl}-2-oxoethyl)-5-methylpiperazin-2-yl]methyl}-(R or S)-6-ethylmorpholin-3-one dihydrochloride]: the EC50 was 1.8 nM in test [1] (setting [3]) and less than 1000 nM in test [1] (setting [4]). For the same compound, the inhibition at 0.04 µM in test [2] was determined as 46%.
Regarding `CCCC(O)c1cnc2c(c1)N(C(=O)CN1C[C@@H](C)NC[C@@H]1CN1Cc3ccccc3C1=O)CC2(C)C` (single isomer, unassigned) [Example 90, dihydrochloride], the EC50 in test [1] (setting [5]) is 13 nM; in test [1] (setting [4]) it was less than 1000 nM. The inhibition at 0.04 µM in test [2] turned out to be 54%.
For `CCC1CN(C[C@H]2CN[C@H](C)CN2CC(=O)N2CC(C)(C)c3ncc([C@@H](O)c4ccc(F)cc4)cc32)C(=O)CO1` (single isomer, unassigned) [Example 110, (R or S)-6-ethyl-4-{[(2R,5R)-1-(2-{6-[(S)-(4-Fluorophenyl)(hydroxy)methyl]-3,3-dimethyl-1H,2H,3H-pyrrolo[3,2-b]pyridin-1-yl}-2-oxoethyl)-5-methylpiperazin-2-yl]methyl}morpholin-3-one dihydrochloride], the EC50 in test [1] (setting [5]) was 290 nM; in test [1] (Homo sapiens, EVSA-T, read-out: EC50 in EVSA-T cell line assays), less than 1000 nM. In addition, the inhibition at 0.04 µM in test [2] is 48%.
Consider `C[C@@H]1CN(CC(=O)N2CC(C)(C)c3ncc(Cc4ccc(F)cc4)cc32)[C@@H](CN2CC(C)(C)CC2=O)CN1` [Example 1, 1-{[(2R,5R)-1-(2-{6-[(4-Fluorophenyl)methyl]-3,3-dimethyl-1H,2H,3H-pyrrolo[3,2-b]pyridin-1-yl}-2-oxoethyl)-5-methylpiperazin-2-yl]methyl}-4,4-dimethylpyrrolidin-2-one dihydrochloride], for which the figures for the EC50 in test [1] (setting [3]) and in test [1] (setting [4]) were 2.2 nM and less than 1000 nM, respectively. In test [2], the inhibition at 0.04 µM came to 54%.
`C[C@@H]1CN(CC(=O)N2CC(C)(C)c3ncc(Cc4ccc(F)cc4)cc32)[C@@H](CN2CCC(C)(C)C2=O)CN1` [Example 4, 1-{[(2R,5R)-1-(2-{6-[(4-Fluorophenyl)methyl]-3,3-dimethyl-1H,2H,3H-pyrrolo[3,2-b]pyridin-1-yl}-2-oxoethyl)-5-methylpiperazin-2-yl]methyl}-3,3-dimethylpyrrolidin-2-one dihydrochloride]: the EC50 in test [1] (setting [3]) was 3 nM; in test [1] (setting [4]), less than 1000 nM. Further, the inhibition at 0.04 µM in test [2] is 34%.
For the compound `C[C@@H]1CN(CC(=O)N2CC(C)(C)c3ncc(Cc4ccc(F)cc4)cc32)[C@@H](CN2CC(C)(C)OC2=O)CN1` [Example 5, 3-{[(2R,5R)-1-(2-{6-[(4-Fluorophenyl)methyl]-3,3-dimethyl-1H,2H,3H-pyrrolo[3,2-b]pyridin-1-yl}-2-oxoethyl)-5-methylpiperazin-2-yl]methyl}-5,5-dimethyl-1,3-oxazolidin-2-one dihydrochloride], the EC50 is 6.2 nM in test [1] (setting [3]) and less than 1000 nM in test [1] (setting [4]). In addition, in test [2], the inhibition at 0.04 µM amounted to 44%.
Turning to `CC1CC(=O)N(C[C@H]2CN[C@H](C)CN2CC(=O)N2CC(C)(C)c3ncc(Cc4ccc(F)cc4)cc32)C1` (stereo partly drawn) [Example 6, 1-{[(2R,5R)-1-(2-{6-[(4-Fluorophenyl)methyl]-3,3-dimethyl-1H,2H,3H-pyrrolo[3,2-b]pyridin-1-yl}-2-oxoethyl)-5-methylpiperazin-2-yl]methyl}-4-methylpyrrolidin-2-one dihydrochloride], the EC50 in test [1] (setting [3]) was 1.1 nM; in test [1] (setting [4]) it was less than 1000 nM. For the same compound, the inhibition at 0.04 µM in test [2] came out at 48%.
As to `COC[C@@H]1CN(C[C@H]2CN[C@H](C)CN2CC(=O)N2CC(C)(C)c3nnc(Cc4ccc(F)cc4F)cc32)C(=O)CO1` [Example 101, (6S)-4-{[(2R,5R)-1-(2-{3-[(2,4-Difluorophenyl)methyl]-7,7-dimethyl-5H,6H,7H-pyrrolo[3,2-c]pyridazin-5-yl}-2-oxoethyl)-5-methylpiperazin-2-yl]methyl}-6-(methoxymethyl)morpholin-3-one dihydrochloride], the EC50 in test [1] (setting [3]) was 25 nM; in test [1] (setting [4]), less than 1000 nM.
As to `C[C@@H]1CN(CC(=O)N2CC(C)(C)c3nnc(Cc4ccc(F)cc4F)cc32)[C@@H](CN2Cc3cc(F)ccc3C2=O)CN1` [Example 103, 2-{[(2R,5R)-1-(2-{3-[(2,4-Difluorophenyl)methyl]-7,7-dimethyl-5H,6H,7H-pyrrolo[3,2-c]pyridazin-5-yl}-2-oxoethyl)-5-methylpiperazin-2-yl]methyl}-5-fluoro-2,3-dihydro-1H-isoindol-1-one dihydrochloride], in test [1] (setting [6]), the EC50 came to 0.18 nM.
Same read-out and setting: the same measure for `C[C@@H]1CN(CC(=O)N2CC(C)(C)c3nnc(Cc4ccc(F)cc4F)cc32)[C@@H](CN2Cc3c(F)cccc3C2=O)CN1` [Example 104, 2-{[(2R,5R)-1-(2-{3-[(2,4-Difluorophenyl)methyl]-7,7-dimethyl-5H,6H,7H-pyrrolo[3,2-c]pyridazin-5-yl}-2-oxoethyl)-5-methylpiperazin-2-yl]methyl}-4-fluoro-2,3-dihydro-1H-isoindol-1-one dihydrochloride]: 0.12 nM; for `C[C@@H]1CN(CC(=O)N2CC(C)(C)c3nnc(Cc4ccc(F)cc4F)cc32)[C@@H](CN2Cc3cc(C#N)ccc3C2=O)CN1` [Example 109, 2-{[(2R,5R)-1-(2-{3-[(2,4-Difluorophenyl)methyl]-7,7-dimethyl-5H,6H,7H-pyrrolo[3,2-c]pyridazin-5-yl}-2-oxoethyl)-5-methylpiperazin-2-yl]methyl}-1-oxo-2,3-dihydro-1H-isoindole-5-carbonitrile dihydrochloride]: 0.64 nM; for `C[C@@H]1CN(CC(=O)N2CC(C)(C)c3nnc(Cc4ccc(F)cc4F)cc32)[C@@H](CN2Cc3ccc(C#N)cc3C2=O)CN1` [Example 114, 2-{[(2R,5R)-1-(2-{3-[(2,4-Difluorophenyl)methyl]-7,7-dimethyl-5H,6H,7H-pyrrolo[3,2-c]pyridazin-5-yl}-2-oxoethyl)-5-methylpiperazin-2-yl]methyl}-3-oxo-2,3-dihydro-1H-isoindole-5-carbonitrile dihydrochloride]: 1.4 nM.
For `C[C@@H]1CN(CC(=O)N2CC(C)(C)c3nnc(Cc4ccc(F)cc4F)cc32)[C@@H](CN2Cc3ccc(O)cc3C2=O)CN1` [Example 115, 2-{[(2R,5R)-1-(2-{3-[(2,4-Difluorophenyl)methyl]-7,7-dimethyl-5H,6H,7H-pyrrolo[3,2-c]pyridazin-5-yl}-2-oxoethyl)-5-methylpiperazin-2-yl]methyl}-6-hydroxy-2,3-dihydro-1H-isoindol-1-one dihydrochloride], in test [2], the inhibition at 0.04 µM came out at 78%.
Still for that read-out and setting: the same measure for `C[C@@H]1CN(CC(=O)N2CC(C)(C)c3ncc(Cc4ccc(F)cc4F)cc32)[C@@H](CN2Cc3ccc(O)cc3C2=O)CN1` [Example 116, 2-{[(2R,5R)-1-(2-{6-[(2,4-Difluorophenyl)methyl]-3,3-dimethyl-1H,2H,3H-pyrrolo[3,2-b]pyridin-1-yl}-2-oxoethyl)-5-methylpiperazin-2-yl]methyl}-6-hydroxy-2,3-dihydro-1H-isoindol-1-one dihydrochloride]: 79%; for `C[C@@H]1CN(CC(=O)N2CC(C)(C)c3nnc(Cc4ccc(F)cc4F)cc32)[C@@H](CN2Cc3c(O)cccc3C2=O)CN1` [Example 117, 2-{[(2R,5R)-1-(2-{3-[(2,4-Difluorophenyl)methyl]-7,7-dimethyl-5H,6H,7H-pyrrolo[3,2-c]pyridazin-5-yl}-2-oxoethyl)-5-methylpiperazin-2-yl]methyl}-4-hydroxy-2,3-dihydro-1H-isoindol-1-one dihydrochloride]: 78%.
Regarding `C[C@@H]1CN(CC(=O)N2CC(C)(C)c3nnc(Cc4ccc(F)cc4F)cc32)[C@@H](CN2Cc3c(C#N)cccc3C2=O)CN1` [Example 119, 2-{[(2R,5R)-1-(2-{3-[(2,4-Difluorophenyl)methyl]-7,7-dimethyl-5H,6H,7H-pyrrolo[3,2-c]pyridazin-5-yl}-2-oxoethyl)-5-methylpiperazin-2-yl]methyl}-1-oxo-2,3-dihydro-1H-isoindole-4-carbonitrile dihydrochloride], the EC50 is 7.5 nM in test [1] (setting [3]) and less than 1000 nM in test [1] (setting [4]).
